Laboratory results from publication PMC9161086, “Water-Soluble Trichogin GA IV-Derived Peptaibols Protect Tomato Plants From Botrytis cinerea Infection With Limited Impact on Plant Defenses” (Frontiers in Plant Science, 2022).

Experiment: Hydrophilicity evaluated from HPLC retention times
Type: physicochemical
Settings: comparison to native Trichogin GA IV, C18 column Phenomenex Jupiter 5 μm, 300 Å, 250 × 4.5 mm, gradient 60%–100% B in 30 min, A H2O/CH3CN 9:1 0.05% TFA, B CH3CN/H2O 9:1 0.05% TFA

## 1-octanoyl-Aib-Gly-Leu-Aib-Gly-Gly-Leu-Aib-Gly-Ile-Lol [Trichogin GA IV, 11-residue lipopeptaibol naturally produced by Trichoderma longibrachiatum]
  Hydrophilicity: Native
